The record followed here is US10689399B2, “Substituted 3,4,5,6,8,10,14,14a-octahydro-2h-2,6-methanopyrido[1′,2′:4,5]pyrazino[2,1-b][1,3]oxazocines and methods for treating viral infections” (Gilead Sciences, Inc., priority 2012, dated 2020).

The test system of the first assay is HIV-IIIb. As to the kind of experiment: Antiviral assay in MT4 cells. It is filed as cell-based. As to conditions: Human immunodeficiency virus 1, IIIB, MT4, 120 h, MT4 cells infected with HIV-IIIb, 5 days, CellTiter-Glo; read-out: EC50 nM in MT-4. How it is done: For the antiviral assay utilizing MT4 cells, 0.4 μL of 189X test concentration of 3-fold serially diluted compound in DMSO was added to 40 μL of cell growth medium (RPMI 1640, 10% FBS, 1% penicilline/Streptomycine, 1% L-Glutamine, 1% HEPES) in each well of 384-well assay plates (10 concentrations) in quidruplicate.
1 mL aliquots of 2×10^6 MT4 cells are pre-infected for 1 and 3 hours respectively at 37° C. with 25 μL (MT4) or of either cell growth medium (mock-infected) or a fresh 1:250 dilution of an HIV-IIIb concentrated ABI stock (0.004 m.o.i. for MT4 cells). Infected and uninfected cells are diluted in cell growth medium and 35 μL of 2000 (for MT4) cells is added to each well of the assay plates.
Assay plates were then incubated in a 37° C. incubator. After 5 days of incubation, 25 μL of 2× concentrated CellTiter-Glo™ Reagent (catalog # G7573, Promega Biosciences, Inc., Madison, Wis.) was added to each well of the assay plate. Cell lysis was carried out by incubating at room temperature for 2-3 minutes, and then chemiluminescence was read using the Envision reader (PerkinElmer).
As usually defined, the EC50 is the concentration that produces a half-maximal response. Consider `O=C(NCc1ccc(F)cc1F)c1cn2c(c(O)c1=O)C(=O)N1C(C2)O[C@H]2CCC[C@@H]1C2` (stereo partly drawn) [Compound 7, (2S,6R)—N-(2,4-difluorobenzyl)-9-hydroxy-8,10-dioxo-3,4,5,6,8,10,14,14a-octahydro-2H-2,6-methanopyrido[1′,2′:4,5]pyrazino[2,1-b][1,3]oxazocine-11-carboxamide], for which the EC50 was 3.5 nM.
For the molecule `O=C(NCc1c(F)cc(F)cc1F)c1cn2c(c(O)c1=O)C(=O)N1[C@H]3CC[C@H](CC3)[C@H]1C2` [Compound 101, (1R,4R,12aS)-7-hydroxy-6,8-dioxo-N-(2,4,6-trifluorobenzyl)-1,2,3,4,6,8,12,12a-octahydro-1,4-ethanodipyrido[1,2-a:1′,2′-d]pyrazine-9-carboxamide], the EC50 turned out to be 2.1 nM.
Take `O=C(NCc1cc(F)c(F)cc1F)c1cn2c(c(O)c1=O)C(=O)N1[C@H]3CC[C@H](C3)O[C@@H]1C2` [Compound 64, (2R,5S,13aR)-8-hydroxy-7,9-dioxo-N-(2,4,5-trifluorobenzyl)-2,3,4,5,7,9,13,13a-octahydro-2,5-methanopyrido[1′,2′:4,5]pyrazino[2,1-b][1,3]oxazepine-10-carboxamide]: the concentration giving a half-maximal response (EC50) was found to be 3.5 nM.
Turning to `O=C(NCc1cccc(Cl)c1Cl)c1cn2c(c(O)c1=O)C(=O)N1[C@H]3CC[C@H](C3)[C@@H]1C2` [Compound 60, (1R,4S,12aR)—N-(2,3-dichlorobenzyl)-7-hydroxy-6,8-dioxo-1,2,3,4,6,8,12,12a-octahydro-1,4-methanodipyrido[1,2-a:1′,2′-d]pyrazine-9-carboxamide], the concentration giving a half-maximal response (EC50) was 2.1 nM.
As for `C[C@H](NC(=O)c1cn2c(c(O)c1=O)C(=O)N1[C@H]3CC[C@H](C3)O[C@@H]1C2)c1ccc(F)cc1` [Compound 22, (2R,5S,13aR)—N—((S)-1-(4-fluorophenyl)ethyl)-8-hydroxy-7,9-dioxo-2,3,4,5,7,9,13,13a-octahydro-2,5-methanopyrido[1′,2′:4,5]pyrazino[2,1-b][1,3]oxazepine-10-carboxamide], the EC50 is 64.3 nM.
`C[C@@H](NC(=O)c1cn2c(c(O)c1=O)C(=O)N1[C@@H]3CC[C@@H](C3)O[C@H]1C2)c1ccc(F)cc1F` [Compound 11, (2S,5R,13aS)—N—((R)-1-(2,4-difluorophenyl)ethyl)-8-hydroxy-7,9-dioxo-2,3,4,5,7,9,13,13a-octahydro-2,5-methanopyrido[1′,2′: 4,5]pyrazino[2,1-b][1,3]oxazepine-10-carboxamide]: the 50% effective concentration (EC50) amounted to 4.9 nM.
The same measure, in the same setting: next, `O=C(NCc1c(F)cc(F)cc1F)c1cn2c(c(O)c1=O)C(=O)N1[C@@H](C2)[C@H]2C[C@@H]1C(F)(F)C2` [Compound 98, (1S,4R,12aR)-3,3-difluoro-7-hydroxy-6,8-dioxo-N-(2,4,6-trifluorobenzyl)-1,2,3,4,6,8,12,12a-octahydro-1,4-methanodipyrido[1,2-a:1′,2′-d]pyrazine-9-carboxamide]: 2.4 nM; `O=C(NC1(c2ccc(F)cc2F)CC1)c1cn2c(c(O)c1=O)C(=O)N1C(C2)O[C@H]2CCC[C@@H]1C2` (stereo partly drawn) [Compound 28, (2 S,6R)—N-(1-(2,4-difluorophenyl)cyclopropyl)-9-hydroxy-8,10-dioxo-3,4,5,6,8,10,14,14a-octahydro-2H-2,6-methanopyrido[1′,2′:4,5]pyrazino[2,1-b][1,3]oxazocine-11-carboxamide]: 15.6 nM.
`O=C(NCc1ccc(F)c(F)c1)c1cn2c(c(O)c1=O)C(=O)N1[C@@H]3CC[C@@H](C3)O[C@H]1C2` [Compound 18, (2S,5R,13aS)—N-(3,4-difluorobenzyl)-8-hydroxy-7,9-dioxo-2,3,4,5,7,9,13,13a-octahydro-2,5-methanopyrido[1′,2′:4,5]pyrazino[2,1-b][1,3]oxazepine-10-carboxamide]: the EC50 turned out to be 4.1 nM.
For `O=C(NCc1ccc(F)c(F)c1F)c1cn2c(c(O)c1=O)C(=O)N1[C@@H]3CC[C@@H](C3)O[C@H]1C2` [Compound 44, (13aS)-8-hydroxy-7,9-dioxo-N-(2,3,4-trifluorobenzyl)-2,3,4,5,7,9,13,13a-octahydro-2,5-methanopyrido[1′,2′:4,5]pyrazino[2,1-b][1,3]oxazepine-10-carboxamide], the half-maximal effective concentration (EC50) was found to be 2.3 nM.
Consider `O=C(NCc1c(F)ccc(Cl)c1F)c1cn2c(c(O)c1=O)C(=O)N1[C@H]3CC[C@H](C3)[C@@H]1C2` [Compound 73, (1R,4S,12aR)—N-(3-chloro-2,6-difluorobenzyl)-7-hydroxy-6,8-dioxo-1,2,3,4,6,8,12,12a-octahydro-1,4-methanodipyrido[1,2-a:1′,2′-d]pyrazine-9-carboxamide], for which the concentration for a half-maximal effect (EC50) worked out at 1.8 nM.
Take `O=C(NCc1ccc(F)cc1OC1CC1)c1cn2c(c(O)c1=O)C(=O)N1[C@H]3CC[C@H](C3)O[C@@H]1C2` [Compound 53, (2R,5S,13aR)—N-(2-cyclopropoxy-4-fluorobenzyl)-8-hydroxy-7,9-dioxo-2,3,4,5,7,9,13,13a-octahydro-2,5-methanopyrido[1%2′: 4,5]pyrazino[2,1-b][1,3]oxazepine-10-carboxamide]: the EC50 came to 14.3 nM.
Consider `O=C(NCc1cccc(Cl)c1F)c1cn2c(c(O)c1=O)C(=O)N1[C@H]3CC[C@H](C3)O[C@@H]1C2` [Compound 88, (2R,5S,13aR)—N-(3-chloro-2-fluorobenzyl)-8-hydroxy-7,9-dioxo-2,3,4,5,7,9,13,13a-octahydro-2,5-methanopyrido[1′,2′:4,5]pyrazino[2,1-b][1,3]oxazepine-10-carboxamide], for which the concentration for a half-maximal effect (EC50) amounted to 2.9 nM.
The same measure, in the same setting: in the case of `O=C(NC1(c2ccc(F)cc2F)CC1)c1cn2c(c(O)c1=O)C(=O)N1C(C2)O[C@H]2CC[C@@H]1C2` (stereo partly drawn) [Compound 27, (2 S,5R)—N-(1-(2,4-difluorophenyl)cyclopropyl)-8-hydroxy-7,9-dioxo-2,3,4,5,7,9,13,13a-octahydro-2,5-methanopyrido[1′,2′:4,5]pyrazino[2,1-b][1,3]oxazepine-10-carboxamide] it was 4.4 nM; in that of `C[C@H](NC(=O)c1cn2c(c(O)c1=O)C(=O)N1[C@@H]3CC[C@@H](C3)O[C@H]1C2)c1ccc(F)cc1` [Compound 21, (2S,5R,13aS)—N—((S)-1-(4-fluorophenyl)ethyl)-8-hydroxy-7,9-dioxo-2,3,4,5,7,9,13,13a-octahydro-2,5-methanopyrido[1′,2′:4,5]pyrazino[2,1-b][1,3]oxazepine-10-carboxamide], 38.3 nM; in that of `O=C(NCc1c(F)cc(F)cc1F)c1cn2c(c(O)c1=O)C(=O)N1[C@@H]3C[C@@H]([C@H](F)C3)[C@@H]1C2` [Compound 59, (1R,2R,4R,12aR)-2-fluoro-7-hydroxy-6,8-dioxo-N-(2,4,6-trifluorobenzyl)-1,2,3,4,6,8,12,12a-octahydro-1,4-methanodipyrido[1,2-a:1′,2′-d]pyrazine-9-carboxamide], 3.1 nM.
With `O=C(NC1(c2ccc(F)cc2F)CCOCC1)c1cn2c(c(O)c1=O)C(=O)N1C(C2)O[C@H]2CC[C@@H]1C2` (stereo partly drawn) [Compound 35, (2S,5R)—N-(4-(2,4-difluorophenyl)tetrahydro-2H-pyran-4-yl)-8-hydroxy-7,9-dioxo-2,3,4,5,7,9,13,13a-octahydro-2,5-methanopyrido[1′,2′:4,5]pyrazino[2,1-b][1,3]oxazepine-10-carboxamide], the 50% effective concentration (EC50) amounted to 157 nM.
Take `O=C(NCc1ccc(F)cc1)c1cn2c(c(O)c1=O)C(=O)N1[C@@H]3CC[C@@H](C3)O[C@H]1C2` [Compound 15, (2 S,5R,13aS)—N-(4-fluorobenzyl)-8-hydroxy-7,9-dioxo-2,3,4,5,7,9,13,13a-octahydro-2,5-methanopyrido[1′,2′:4,5]pyrazino[2,1-b][1,3]oxazepine-10-carboxamide]: the EC50 amounted to 2.2 nM.
For `O=C(NCc1cccc(C(F)(F)F)c1F)c1cn2c(c(O)c1=O)C(=O)N1[C@H]3CC[C@H](C3)[C@@H]1C2` [Compound 74, (1R,4S,12aR)—N-(2-fluoro-3-(trifluoromethyl)benzyl)-7-hydroxy-6,8-dioxo-1,2,3,4,6,8,12,12a-octahydro-1,4-methanodipyrido[1,2-a:1′,2′-d]pyrazine-9-carboxamide], the concentration for a half-maximal effect (EC50) came to 29.3 nM.

Still in this assay, the particulars now being: Human immunodeficiency virus 1, IIIB, MT4, 120 h, read-out: EC50 nM in MT-4, MT4 cells infected with HIV-IIIb, 5 days, CellTiter-Glo.
As for `C[C@H]1C[C@@H]2C[C@H]1O[C@H]1Cn3cc(C(=O)NCc4ccc(F)cc4F)c(=O)c(O)c3C(=O)N21` [Compound 39, (2R,3S,5R,13aS)—N-(2,4-difluorobenzyl)-8-hydroxy-3-methyl-7,9-dioxo-2,3,4,5,7,9,13,13a-octahydro-2,5-methanopyrido[1′,2′:4,5]pyrazino[2,1-b][1,3]oxazepine-10-carboxamide], the EC50 stood at 3.6 nM.
Turning to `O=C(NCc1ccc(F)cc1Cl)c1cn2c(c(O)c1=O)C(=O)N1[C@H]3CC[C@H](C3)O[C@@H]1C2` [Compound 63, (2R,5S,13aR)—N-(2-chloro-4-fluorobenzyl)-8-hydroxy-7,9-dioxo-2,3,4,5,7,9,13,13a-octahydro-2,5-methanopyrido[1′,2′:4,5]pyrazino[2,1-b][1,3]oxazepine-10-carboxamide], the EC50 is 2.5 nM.
In the case of `O=C(NC1(c2ccc(F)cc2F)CCCCC1)c1cn2c(c(O)c1=O)C(=O)N1C(C2)O[C@H]2CC[C@@H]1C2` (stereo partly drawn) [Compound 34, (2S,5R)—N-(1-(2,4-difluorophenyl)cyclohexyl)-8-hydroxy-7,9-dioxo-2,3,4,5,7,9,13,13a-octahydro-2,5-methanopyrido[1′,2′: 4,5]pyrazino[2,1-b][1,3]oxazepine-10-carboxamide], the concentration giving a half-maximal response (EC50) worked out at 422 nM.
